Laboratory results reported in patent publication EP4813463A2, “TYK2 INHIBITORS AND COMPOSITIONS AND METHODS THEREOF” (Lynk Pharmaceuticals Co. Ltd., priority 2023, dated 2024).
Converted amounts (≈) assume the structure as drawn. Like-named read-outs stand apart in the source and are kept apart here.

Assays:
JAK1 = target: T1, JAK1 (Homo sapiens, UniProt P23458); experiment: JAK1 kinase activity, microfluidic assay (Caliper EZ Reader II, FAM labeled peptide substrate); type: biochemical; conditions: JAK1 10 nM, 1 mM ATP
T1 construct: purchased Carna Biosciences
T1 sequence (P23458 875-1153 limits assumed): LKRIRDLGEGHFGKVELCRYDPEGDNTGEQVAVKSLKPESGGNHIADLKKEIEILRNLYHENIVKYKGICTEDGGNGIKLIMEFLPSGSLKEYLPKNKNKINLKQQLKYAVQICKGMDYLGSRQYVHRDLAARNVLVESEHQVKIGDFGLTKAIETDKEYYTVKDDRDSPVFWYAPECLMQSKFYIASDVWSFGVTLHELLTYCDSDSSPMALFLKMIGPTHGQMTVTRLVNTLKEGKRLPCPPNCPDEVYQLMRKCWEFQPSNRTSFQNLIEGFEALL
Method: (§1) Testing for JAK1, JAK2 and TYK2 Kinase Activities
(§2) JAK activity was determined in the reaction buffer 50 mM HEPES, 0.01% Brij35, 10 mM MgCl2, 2 mM DTT by a microfluidic assay. The phosphorylation of a FAM labeled peptide substrate was monitored in the Caliper EZ Reader II (Perkin Elmer). The assay condition for each batch of enzyme (Carna Biosciences) was optimized to obtain 10% conversion rate of peptide substrate.
(§3) The test compounds were dissolved in DMSO to a stock concentration of 10 mM. Three-fold serially diluted compounds with top concentration of 5 µM were pre-incubated with JAK1, JAK2 or TYK2 for 10 min at ambient temperature. The final DMSO concentration of assay mixture was 1%. […] The reaction was stopped by adding 50 mM EDTA.
(§4) And the well without compound but with equivalent DMSO was defined as no inhibition. The percent inhibition was calculated by the following formula: % Inhibition = (Conversion%_max−Conversion%_sample)/(Conversion%_max−Conversion%_min) × 100 [formula] wherein • Conversion%_ max = the conversion rate in the positive well without addition of compound • Conversion%_ sample = the conversion rate of test compounds • Conversion%_ min = the conversion rate in the well without addition of enzyme
(§5) The dose-response (percent inhibition) curve was plotted and IC50 values were determined by GraphPad software. The IC50 values of tested compounds were list in Table 3. Table 3. JAK1, JAK2 and TYK2 IC50 Values of Illustrative Compounds

JAK2 = target: T2, JAK2 (Homo sapiens, UniProt O60674); experiment: JAK2 kinase activity, microfluidic assay (Caliper EZ Reader II, FAM labeled peptide substrate); type: biochemical; conditions: JAK2 1.5 nM, 1 mM ATP
T2 construct: purchased Carna Biosciences
T2 sequence (O60674 849-1124 limits assumed): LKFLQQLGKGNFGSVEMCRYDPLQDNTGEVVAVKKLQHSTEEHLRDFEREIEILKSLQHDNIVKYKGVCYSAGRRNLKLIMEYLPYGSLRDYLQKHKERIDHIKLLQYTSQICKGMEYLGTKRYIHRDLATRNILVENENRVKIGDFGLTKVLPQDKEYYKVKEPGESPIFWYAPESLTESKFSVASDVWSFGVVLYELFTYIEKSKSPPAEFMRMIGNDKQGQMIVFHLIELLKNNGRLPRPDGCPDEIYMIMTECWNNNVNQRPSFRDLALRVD
Method: as §1, §2, §3, §4, §5

[1] = tested on: Ba/F3-FL-TYK2-P760L cells; experiment: Anti-proliferative assay in engineered Ba/F3 cells (Cell-Titer Glo, 72 h); type: cell-based; conditions: Mus musculus, concentration that causes 50% growth inhibition, read-out: Baf3-FL-T2P760L
Outline: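 Ba/F3 cells carrying Tel-dimerization/JAK kinase fusion, IL-3-independent, in RPMI-1640 + 10% FBS; 9-point 3-fold dilutions from 20 µM (0.1% DMSO) added after 24 h, 72 h at 37 °C. Viability by Cell-Titer Glo ATP luminescence; % inhibition versus DMSO cells, blank-corrected, giving IC50.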

JAK1-JH2 domain = target: T3, JAK1-JH2 domain (Homo sapiens, UniProt P23458); experiment: Binding activity test for JH2 domain of JAK1 (Tb-antibody/tracer FRET)
T3 construct: JAK1-JH2 domain or TYK2-JH2 domain enzyme in assay buffer
T3 sequence (P23458 583-855 limits assumed): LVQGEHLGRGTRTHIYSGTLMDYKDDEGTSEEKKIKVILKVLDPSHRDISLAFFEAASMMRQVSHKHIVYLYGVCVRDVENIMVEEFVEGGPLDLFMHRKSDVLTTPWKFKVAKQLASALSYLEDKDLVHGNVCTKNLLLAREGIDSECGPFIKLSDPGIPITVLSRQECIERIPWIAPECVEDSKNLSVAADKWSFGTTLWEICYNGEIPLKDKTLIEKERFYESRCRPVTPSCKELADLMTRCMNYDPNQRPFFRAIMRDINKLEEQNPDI
Outline: (§6)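 Competitive TR-FRET binding: compounds dispensed as an 11-point 3-fold dilution series, then Tb-labelled antibody and tracer added to the JH2 protein system. Incubated at 25°C, then overnight at 4°C; FRET signal read on Envision and IC50 (nM) derived.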

Kinetic solubility = type: physicochemical; conditions: kinetic from dmso stock, 100 mM pH 7.4 phosphate buffer, 1% DMSO, room temperature, read-out: Kinetics Solubility_PBS7.4
Outline: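 Compounds diluted from 10 mM/5 mM DMSO stocks into 100 mM phosphate buffer pH 7.4 (1% DMSO final), shaken 2 h at room temperature, then centrifuged. Dissolved compound in supernatant quantified by LC-MS/MS against a standard curve.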

TYK2-JH2 domain = target: T4, TYK2-JH2 domain (Homo sapiens, UniProt P29597); experiment: Binding activity test for JH2 domain of TYK2 (Tb-antibody/tracer FRET)
T4 construct: JAK1-JH2 domain or TYK2-JH2 domain enzyme in assay buffer
T4 sequence (P29597 589-875 limits assumed): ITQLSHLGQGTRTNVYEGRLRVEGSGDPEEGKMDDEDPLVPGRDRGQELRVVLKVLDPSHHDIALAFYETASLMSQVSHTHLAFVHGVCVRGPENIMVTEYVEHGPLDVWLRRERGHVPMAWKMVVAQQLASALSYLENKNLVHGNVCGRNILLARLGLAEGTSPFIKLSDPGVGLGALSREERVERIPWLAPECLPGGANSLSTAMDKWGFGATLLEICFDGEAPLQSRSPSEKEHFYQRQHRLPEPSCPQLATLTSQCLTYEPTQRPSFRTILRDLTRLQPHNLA
Outline: as §6

[2] = BaF3, 72 h, 72 h compound treatment
[3] = JH2 domain enzyme; 60 min at 25°C, then 4°C overnight; read-out: JAK1 JH2 Binding IC50
[4] = phosphate buffer, pH 7.4, aqueous buffer
[5] = JH2 domain enzyme; 60 min at 25°C, then 4°C overnight; read-out: TYK2 JH2 Binding IC50
[6] = ratio of JAK1 JH2 to TYK2 JH2 binding IC50

## [2H]C([2H])([2H])O[C@@H](c1ccc2c(c(Nc3cc(NC(=O)C4CC4)ncc3C(=O)OC)nn2C)c1OC)C(F)(F)F [Example 50B, Methyl (S)-6-(cyclopropanecarboxamido)-4-((4-methoxy-1-methyl-5-(2,2,2-trifluoro-1-(methoxy-d3)ethyl)-1H-indazol-3-yl)amino)nicotinate]
JAK1
  IC50: > 5000 nM
JAK2
  IC50: > 5000 nM
[1]; [2]
  IC50: 2.85 nM
JAK1-JH2 domain; [3]
  IC50: 28.8 nM
Kinetic solubility; [4]
  solubility kinetic at 2 h: 7.23 µM (≈ 3.69 µg/mL)
TYK2-JH2 domain; [5]
  IC50: 0.177 nM
TYK2-JH2 domain; [6]
  JAK1/TYK2 selectivity: 162.94

## COC(=O)c1cnc(NC(=O)C2CC2)cc1Nc1nn(C)c2ccc([C@H](OC)C(F)(F)F)c(OC)c12 [Example 45B, Methyl (S)-6-(cyclopropanecarboxamido)-4-((4-methoxy-1-methyl-5-(2,2,2-trifluoro-1-methoxyethyl)-1H-indazol-3-yl)amino)nicotinate]
[1]; [2]
  IC50: 2.53 nM
JAK1-JH2 domain; [3]
  IC50: 24.5 nM
Kinetic solubility; [4]
  solubility kinetic at 2 h: 9.37 µM (≈ 4.75 µg/mL)
TYK2-JH2 domain; [5]
  IC50: 0.124 nM
TYK2-JH2 domain; [6]
  JAK1/TYK2 selectivity: 197.30

## [2H]C([2H])([2H])NC(=O)c1cnc(NC(=O)C2CC2)cc1Nc1nn(C)c2ccc([C@H](OC([2H])([2H])[2H])C(F)(F)F)c(OC)c12 [Example 55A, (S)-6-(cyclopropanecarboxamido)-4-((4-methoxy-1-methyl-5-(2,2,2-trifluoro-1-(methoxy-d3)ethyl)-1H-indazol-3-yl)amino)-N-(methyl-d3)nicotinamide]
JAK1
  IC50: > 5000 nM
JAK2
  IC50: > 10000 nM
[1]; [2]
  IC50: 0.352 nM
JAK1-JH2 domain; [3]
  IC50: 2.54 nM
Kinetic solubility; [4]
  solubility kinetic at 2 h: 7.78 µM (≈ 3.99 µg/mL)
TYK2-JH2 domain; [5]
  IC50: 0.052 nM
TYK2-JH2 domain; [6]
  JAK1/TYK2 selectivity: 48.9

## COC(=O)c1cnc(NC(=O)C2CC2)cc1Nc1nn(C)c2ccc([C@H](O)C(F)(F)F)c(OC)c12 [Example 48A, Methyl (S)-6-(cyclopropanecarboxamido)-4-((4-methoxy-1-methyl-5-(2,2,2-trifluoro-1-hydroxyethyl)-1H-indazol-3-yl)amino)nicotinate]
JAK1
  IC50: > 5000 nM
JAK2
  IC50: > 5000 nM
[1]; [2]
  IC50: 1.5 nM
JAK1-JH2 domain; [3]
  IC50: 23 nM
Kinetic solubility; [4]
  solubility kinetic at 2 h: 6.98 µM (≈ 3.44 µg/mL)
TYK2-JH2 domain; [5]
  IC50: 0.145 nM
TYK2-JH2 domain; [6]
  JAK1/TYK2 selectivity: 158.89

## [2H]C([2H])([2H])NC(=O)c1cnc(Nc2cc(C)nc(C)n2)cc1Nc1cnn2ccc([C@H](O)C(F)(F)F)c(OC)c12 [Example 25, (S)-6-((2,6-Dimethylpyrimidin-4-yl)amino)-4-((4-methoxy-5-(2,2,2-trifluoro-1-hydroxyethyl)pyrazolo[1,5-a]pyridin-3-yl)amino)-N-(methyl-d3)nicotinamide]
JAK1
  IC50: > 20000 nM
JAK2
  IC50: > 20000 nM
[1]; [2]
  IC50: 5.01 nM
JAK1-JH2 domain; [3]
  IC50: 11.5 nM
Kinetic solubility; [4]
  solubility kinetic at 2 h: 43 µM (≈ 22.3 µg/mL)
TYK2-JH2 domain; [5]
  IC50: 0.068 nM
TYK2-JH2 domain; [6]
  JAK1/TYK2 selectivity: 169.1

## [2H]C([2H])([2H])NC(=O)c1cnc(NC(=O)C2CC2)cc1Nc1cnn2ccc([C@@H](O)C(F)(F)F)c(OC)c12 [Example 7B, (R)-6-(cyclopropanecarboxamido)-4-((4-methoxy-5-(2,2,2-trifluoro-1-hydroxyethyl)pyrazolo[1,5-a]pyridin-3-yl)amino)-N-(methyl-d3)nicotinamide]
JAK1
  IC50: > 20000 nM
JAK2
  IC50: > 20000 nM
[1]; [2]
  IC50: 223 nM
JAK1-JH2 domain; [3]
  IC50: 12.9 nM
Kinetic solubility; [4]
  solubility kinetic at 2 h: 55.8 µM (≈ 26.9 µg/mL)
TYK2-JH2 domain; [5]
  IC50: 0.528 nM
TYK2-JH2 domain; [6]
  JAK1/TYK2 selectivity: 24.4

## [2H]C([2H])([2H])NC(=O)c1cnc(NC(=O)C2CC2)cc1Nc1cnn2ccc([C@H](O)C(F)(F)F)c(OC)c12 [Example 7A, (S)-6-(cyclopropanecarboxamido)-4-((4-methoxy-5-(2,2,2-trifluoro-1-hydroxyethyl)pyrazolo[1,5-a]pyridin-3-yl)amino)-N-(methyl-d3)nicotinamide]
JAK1
  IC50: > 20000 nM
JAK2
  IC50: > 20000 nM
[1]; [2]
  IC50: 5.4 nM
JAK1-JH2 domain; [3]
  IC50: 10.4 nM
Kinetic solubility; [4]
  solubility kinetic at 2 h: 52.1 µM (≈ 25.1 µg/mL)
TYK2-JH2 domain; [5]
  IC50: 0.097 nM
TYK2-JH2 domain; [6]
  JAK1/TYK2 selectivity: 107.6

## [2H]C([2H])([2H])NC(=O)c1nnc(NC(=O)C2CC2)cc1Nc1cnn2ccc([C@H](O)C(F)(F)F)c(OC)c12 [Example 30, (S)-6-(cyclopropanecarboxamido)-4-((4-methoxy-5-(2,2,2-trifluoro-1-hydroxyethyl)pyrazolo[1,5-a]pyridin-3-yl)amino)-N-(methyl-d3)pyridazine-3-carboxamide]
JAK1
  IC50: > 20000 nM
JAK2
  IC50: > 20000 nM
[1]; [2]
  IC50: 7.96 nM
JAK1-JH2 domain; [3]
  IC50: 10.9 nM
Kinetic solubility; [4]
  solubility kinetic at 2 h: 42 µM (≈ 20.2 µg/mL)
TYK2-JH2 domain; [5]
  IC50: 0.088 nM
TYK2-JH2 domain; [6]
  JAK1/TYK2 selectivity: 124.4

## [2H]C([2H])([2H])NC(=O)c1cnc(NC(=O)C2CC2)cc1Nc1nn(C)c2ccc([C@H](O)C(F)(F)F)c(OC)c12 [Example 49A, (S)-6-(cyclopropanecarboxamido)-4-((4-methoxy-1-methyl-5-(2,2,2-trifluoro-1-hydroxyethyl)-1H-indazol-3-yl)amino)-N-(methyl-d3)nicotinamide]
JAK1
  IC50: > 5000 nM
JAK2
  IC50: > 10000 nM
[1]; [2]
  IC50: 0.464 nM
JAK1-JH2 domain; [3]
  IC50: 5.28 nM
Kinetic solubility; [4]
  solubility kinetic at 2 h: 45.5 µM (≈ 22.5 µg/mL)
TYK2-JH2 domain; [5]
  IC50: 0.107 nM
TYK2-JH2 domain; [6]
  JAK1/TYK2 selectivity: 49.3

## COC(=O)c1cnc(NC(=O)[C@@H]2C[C@@H]2F)cc1Nc1nn(C)c2ccc(C(O)C(F)(F)F)c(OC)c12 (single isomer, unassigned) [Example 122A, Methyl 6-((1S,2S)-2-fluorocyclopropane-1-carboxamido)-4-((4-methoxy-1-methyl-5-((S*)-2,2,2-trifluoro-1-hydroxyethyl)-1H-indazol-3-yl)amino) nicotinate]
[1]; BaF3, 72 h compound treatment
  IC50: 0.8 nM
JAK1-JH2 domain; read-out: JAK1 JH2 Binding IC50; JH2 domain enzyme; 60 min at 25°C, then 4°C overnight
  IC50: 15.6 nM
Kinetic solubility; aqueous buffer
  solubility kinetic at 2 h: 10.3 µM (≈ 5.27 µg/mL)
TYK2-JH2 domain; [6]
  JAK1/TYK2 selectivity: 216.29
TYK2-JH2 domain; read-out: TYK2 JH2 Binding IC50; JH2 domain enzyme; 60 min at 25°C, then 4°C overnight
  IC50: 0.072 nM

## [2H]C([2H])([2H])NC(=O)c1cnc(Nc2ccn(C)n2)cc1Nc1cnn2ccc([C@H](O)C(F)(F)F)c(OC)c12 [Example 21, (S)-4-((4-methoxy-5-(2,2,2-trifluoro-1-hydroxyethyl)pyrazolo[1,5-a]pyridin-3-yl)amino)-N-(methyl-d3)-6-((1-methyl-1H-pyrazol-3-yl)amino)nicotinamide]
JAK1
  IC50: > 20000 nM
JAK2
  IC50: > 20000 nM
[1]; [2]
  IC50: 15.7 nM
JAK1-JH2 domain; [3]
  IC50: 11 nM
Kinetic solubility; [4]
  solubility kinetic at 2 h: 57.2 µM (≈ 28.2 µg/mL)
TYK2-JH2 domain; [5]
  IC50: 0.077 nM
TYK2-JH2 domain; [6]
  JAK1/TYK2 selectivity: 142.7

## [2H]C([2H])([2H])NC(=O)c1cnc(NC(=O)C2CC2)cc1Nc1cnn2ccc([C@H](OC)C(F)(F)F)c(OC)c12 [Example 27, (S)-6-(cyclopropanecarboxamido)-4-((4-methoxy-5-(2,2,2-trifluoro-1-methoxyethyl)pyrazolo[1,5-a]pyridin-3-yl)amino)-N-(methyl-d3)nicotinamide]
JAK1
  IC50: > 20000 nM
JAK2
  IC50: > 20000 nM
[1]; [2]
  IC50: 8.54 nM
JAK1-JH2 domain; [3]
  IC50: 8.19 nM
Kinetic solubility; [4]
  solubility kinetic at 2 h: 14.2 µM (≈ 7.06 µg/mL)
TYK2-JH2 domain; [5]
  IC50: 0.064 nM
TYK2-JH2 domain; [6]
  JAK1/TYK2 selectivity: 128.0
